The source of these data is patent US7232828B2, “PPAR Ligands that do not cause fluid retention, edema or congestive heart failure” (Bethesda Pharmaceuticals, Inc., priority 2002, dated 2007).

Molecules are shown by their SMILES. “Also recorded” adds a separate entry of the source. Read-outs that look alike come from different tables or passages of the source.

Data set [1] has as its system mouse preadipocyte cell line (3T3-L1). Kind of data set: In vitro adipocyte differentiation (adipogenesis) activity. Type of data set: cell-based. The procedure:
The following examples 2 and 3 provide a generic means to measure adipocyte differentation to determine if one has an insulin-sensitizing agent. […] The cells are then plated at 1.5×10^4/cm^2 in a 96-well tissue culture plate (view plate, 96 white, Packard) coated with type 1 collagen. […] The compounds added from a stock solution of dimethyl sulfoxide (DMSO). […] DMSO (0.1%) was added to the control cultures. The medium was replaced with maintenance medium (DMEM supplemented with 5% of FBS and 100 ng/mL of insulin), and the cells cultured for 2 more days. Activity of stimulation of adipogenesis was determined by exposure of the cells to [14-C]-acetic acid (7.4 kBq/mL), and uptake of [14-C]-acetic acid monitored after 1 h of incubation. The medium is discarded and the cells washed twice with phosphate-buffered saline. The cells are air-dried, and […] of scintillation cocktail (Microscint-20, Packard) added to the wells, and counted with a Packard TopCount microplate scintillation counter.

For another data set, the target named is T1, PPARγ (Homo sapiens, UniProt P37231).
T1 construct: expressed in transfected cells; host or cells: CV-1 cells (CCL-70, ATCC)
T1 sequence (P37231 1-505): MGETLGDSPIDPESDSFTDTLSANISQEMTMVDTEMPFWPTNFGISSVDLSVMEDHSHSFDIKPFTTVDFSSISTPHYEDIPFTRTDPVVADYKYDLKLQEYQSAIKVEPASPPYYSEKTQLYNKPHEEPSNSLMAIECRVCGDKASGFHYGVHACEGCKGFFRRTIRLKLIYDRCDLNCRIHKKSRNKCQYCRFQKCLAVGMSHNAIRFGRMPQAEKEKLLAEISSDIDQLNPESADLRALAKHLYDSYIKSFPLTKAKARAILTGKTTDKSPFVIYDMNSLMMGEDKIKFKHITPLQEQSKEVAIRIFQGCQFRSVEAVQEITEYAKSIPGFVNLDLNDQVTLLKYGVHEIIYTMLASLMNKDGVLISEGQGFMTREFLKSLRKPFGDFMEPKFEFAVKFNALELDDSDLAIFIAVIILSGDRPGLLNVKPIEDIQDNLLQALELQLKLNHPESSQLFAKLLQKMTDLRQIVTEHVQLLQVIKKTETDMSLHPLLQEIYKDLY
Kind of data set: PPARγ transactivation assay in transfected CV-1 cells (luciferase reporter). The settings on record: for Activation of PPARγ (in words): at doses reasonably achievable at therapeutic doses. The class given is cell-based. On the procedure:
ARBs, or derivatives thereof, may be tested for their ability to activate the various PPAR isoforms by utilizing standard screening methods known to those skilled in the art including but not limited to cell based transactivation assays or cell free assays that test the ability of a compound to activate a PPAR construct by measuring the output of a reporter signal that reflects the extent of the PPAR activation. For example, the angiotensin receptor blocker telmisartan is added to the culture media of CV1 cells or other cells that can be transfected with a full length or partial PPAR cDNA sequence together with a reporter construct containing a PPAR response element or other appropriate response element fused to a reporter gene such as luciferase. […] Cell extracts were assayed for luciferase and β-galactosidase activity using Promega (Madison, Wis.) assay systems. All treatments were performed in triplicate, and normalized for β-galactosidase activity. Agonist concentrations yielding half maximal activation (EC50 values) were calculated using GraphPad Prism version 3.03 (GraphPad Software, Inc., San Diego, Calif.).
A general note: A reporter such as luciferase makes a cellular process visible.

For data set [2] the following is noted: obese Zucker rat, oral, extremely high dose; cited from earlier work.
A further data set concerns human preadipocytes. The settings on record: high concentrations; cited from earlier work.
For data set [3] the following is noted: patients with mild hypertension; cited from earlier work.
The nature of data set [4]: Clinical trial in a patient with osteoarthritis and inflammation (elevated CRP). The class given is in vivo, human. Particulars: for Serum CRP level: baseline 7.9. The text has this: A person with osteoarthritis and inflammation as judged by elevated C-reactive protein (CRP) levels was selected for therapy.
The format of data set [5] is in vivo, human. The text has this: Insulin resistance is defined as a state in which circulating insulin levels in excess of the normal response to a glucose load are required to maintain the euglycemic state (Ford ES, et al. JAMA. (2002) 287:356-9). Insulin resistance, and the response of a patient with insulin resistance to therapy, may be quantified by assessing the homeostasis model assessment to insulin resistance (HOMA-IR) score, a reliable indicator of insulin resistance (Katsuki A, et al. Diabetes Care 2001;24:362-5). The estimate of insulin resistance by the homeostasis assessment model (HOMA)-IR score is calculated with the formula (Galvin P, et al. Diabet Med 1992;9:921-8): HOMA-IR=[fasting serum insulin (μU/mL)]×[fasting plasma glucose (mmol/L)/22.5]
A person with the metabolic syndrome was selected for therapy. […] The patient has the metabolic syndrome as defined by the National Cholesterol Education Program. The metabolic syndrome is associated with a 5-9 fold increase in the risk for developing type 2 diabetes and a 2-3 fold increase risk in cardiovascular mortality.

Data set [6] in a line: Clinical trial in a patient with hypertension, hypertriglyceridemia and type 2 diabetes.
The conditions of data set [7]: conventional oral dosing; cited from earlier work.
Where [8] appears, read: 160 mg/day oral, after seven weeks.

On to `CCCCc1ncc(/C=C(\Cc2cccs2)C(=O)O)n1Cc1ccc(C(=O)O)cc1` [eprosartan], for which, in [1], the “Promotion of adipogenesis (in words)” value was “did not promote adipogenesis”. Besides, the “Activation of PPARγ (in words)” value at PPARγ is given as “do not activate PPARγ”.

Turning to `CCCCC1=NC2(CCCC2)C(=O)N1Cc1ccc(-c2ccccc2-c2nnn[nH]2)cc1` [irbesartan], in data set [2], the Insulin sensitivity entry was “improved insulin sensitivity” and the Lipid levels result is reported as “failed to improve lipid levels”. The “Activation of PPARγ / luciferase reporter gene activity (in words)” value on PPARγ is given as “can activate PPARγ; also recorded: found to activate PPARgamma”. In addition, at PPARγ (tested at 10 μM, CV-1 cells), the “PPARγ activation (fold activation)” value was 2-3 fold. The Adipogenesis entry in the data set with human preadipocytes is listed as “can enhance adipogenesis”.

With `CCCCc1nc(Cl)c(CO)n1Cc1ccc(-c2ccccc2-c2nn[nH]n2)cc1` [losartan], in data set [3], the “Effect on glucose metabolism, insulin sensitivity, and serum concentrations” value was “neutral effect”.

By EC50 is commonly meant the midpoint of the concentration-response curve. The low end stands for greater potency, the high end for weaker potency. Turning to `CCCc1nc2c(C)cc(-c3nc4ccccc4n3C)cc2n1Cc1ccc(-c2ccccc2C(=O)O)cc1` [telmisartan], the “Serum CRP level” value in data set [4] (80 mg/day oral, after 6 weeks) was 4.1 mg/L. In [4] (80 mg/day oral, after 9 weeks), the “Symptoms of inflammation and osteoarthritis” value is recorded as “stabilized”; the “Serum CRP level” value came to 3.9 mg/L. The “Fluid retention, peripheral edema, pulmonary edema, congestive heart failure on clinical examination” value in [4] (osteoarthritis patient, 80 mg/day) is recorded as “no evidence of any increase in fluid retention, peripheral edema, pulmonary edema, or congestive heart failure”. For the same compound, the “Diagnostic criteria of the metabolic syndrome (NCEP)” value in data set [5] (80 mg/day oral, after two weeks) is “no longer meets the diagnostic criteria of the metabolic syndrome”. The compound further returned a Fasting glucose in [5] (80 mg/day oral, after two weeks, baseline 118) of 105 mg/dL. In data set [5] (80 mg/day oral, after two weeks, baseline 129), this compound displayed a Fasting triglyceride level of 115 mg/dL. Besides, the Blood pressure in data set [5] (80 mg/day oral, after two weeks, baseline 160/79) is on record as 130/69. The “Insulin resistance as determined by HOMA-IR score (in words)” value in data set [5] (patient with the metabolic syndrome) was “improved insulin resistance”. Further, the “Promotion of adipogenesis (in words)” value in data set [1] is “promote adipogenesis”. Also, the HDL cholesterol in data set [6] (80 mg/day oral, after three weeks, baseline 48) worked out at 50 mg/dL. In addition, the Blood pressure in data set [6] (80 mg/day oral, after three weeks, baseline 160/90) is on record as 143/91. This compound also returned a Fasting glucose in data set [6] (80 mg/day oral, after three weeks, baseline 183) of 188 mg/dL. In data set [6] (80 mg/day oral, after three weeks, baseline 264), this compound gave a Triglyceride of 281 mg/dL. In [6] (setting [8]), the Blood pressure is on record as 131/81, the Glucose level was determined as 145 mg/dL, the HDL cholesterol stood at 60 mg/dL and the Triglyceride level is 178 mg/dL. Besides, in [6] (patient with type 2 diabetes), the “Blood HDL-cholesterol (in words)” value is recorded as “elevated blood HDL-cholesterol”, the “Hyperglycemia (in words)” value is on record as “lowered the hyperglycemia” and the “Plasma triglycerides (in words)” value was “lowers plasma triglycerides”. Further, in [6] (type 2 diabetes patient, 160 mg/day), the “Fluid retention, peripheral edema, pulmonary edema, congestive heart failure on clinical examination” value was “no evidence of any increase in fluid retention, peripheral edema, pulmonary edema, or congestive heart failure”. For the same compound, the “Concentrations that can be achieved in plasma” value in data set [7] is 1000 to 5000 nM. Besides, on PPARγ, the “Activation of PPARγ / luciferase reporter gene activity (in words)” value was “can activate PPARγ; also recorded: significant increase in reporter gene activity” and the 50% effective concentration (EC50) was 5.6 µM. For the same compound, the “PPARγ activation relative to maximum level of activity achieved by full agonists pioglitazone and rosiglitazone” value at PPARγ (CV-1 cells) was 25%-30%. Moreover, the “PPARγ activation (fold)” value at PPARγ (tested at 1-5 μM, CV-1 cells, 24 hr) is reported as 5-8 fold.

Regarding `CCCCC(=O)N(Cc1ccc(-c2ccccc2-c2nnn[nH]2)cc1)[C@H](C(=O)O)C(C)C` [valsartan], the “Promotion of adipogenesis (in words)” value in [1] is recorded as “did not promote adipogenesis”. Further, at PPARγ, the “Activation of PPARγ (in words)” value was “do not activate PPARγ”.
